The results in this text go back to ChEMBL document CHEMBL1201862, “PubChem BioAssay data set” (2004).

Experiment [1] has as its target Dual specificity protein kinase CLK1 (Homo sapiens, UniProt P49759). Nature of the experiment: CLK1 kinase inhibitors, off-target check, dose response, selectivity assay for Dyrk1A inhibitor project, biochemical, cherry-picked samples (AID 588811).
In experiment [2] the target is Dual specificity tyrosine-phosphorylation-regulated kinase 1A (Rattus norvegicus, UniProt Q63470). It is filed as biochemical, Homo sapiens.
Experiment [3] has as its target FAD-linked sulfhydryl oxidase ALR (Homo sapiens, UniProt P55789). Briefly: inhibitors of human ALR sulfhydryl oxidase, dose response, biochemical, H2O2 detection, luminescence, cherry-pick (AID 493248).
Experiment [4] can be described thus: Luminescence Cell-Based Dose Response HTS to Identify Activators of Luciferase Translation or Activity in H4 […] Cells. [Related pubchem assays: 1829 (Project Summary), 1814 (Primary HTS)]. The experiment is classed as functional.
Experiment [5] in a line: Luminescence Cell-Based Dose Confirmation HTS to Identify Activators of 5'UTR Stem-Loop Driven Alpha-Synuclein mRNA Translation in H4 Neuroglioblastoma Cells. [Related pubchem assays: 1829 (Project Summary), 1814 (Primary HTS)]. The experiment is classed as functional.
For the next experiment, the system named is H4. Nature of the experiment: Luminescence Cell-Based Dose Response HTS to Identify Activators of 5'UTR Stem-Loop Driven Prion Protein mRNA Translation in H4 Neuroglioblastoma Cells. [Related pubchem assays: 1829 (Project Summary), 1814 (Primary HTS)]. It is filed as functional. Particulars: Homo sapiens.
Experiment [6] concerns the target T1, Sentrin-specific protease 8 (Homo sapiens, UniProt Q96LD8).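 Further: luminescence read-out of SENP8 inhibition, dose-response confirmation following an ultra-high-throughput screen.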
T1 sequence (Q96LD8 whole entry): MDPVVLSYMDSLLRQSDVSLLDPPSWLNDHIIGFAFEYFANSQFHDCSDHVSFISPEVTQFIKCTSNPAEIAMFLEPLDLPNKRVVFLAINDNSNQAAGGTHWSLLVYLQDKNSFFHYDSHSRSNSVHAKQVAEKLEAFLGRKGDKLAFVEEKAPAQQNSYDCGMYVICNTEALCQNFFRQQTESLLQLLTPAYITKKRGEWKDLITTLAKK
It is filed as functional.

For the next experiment, the target named is T2, Caspase-3 (Homo sapiens, UniProt P42574).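 Further: Dose-response selectivity test against caspase-3 for candidate inhibitors of sentrin-specific proteases (SENPs).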
T2 sequence (P42574 whole entry): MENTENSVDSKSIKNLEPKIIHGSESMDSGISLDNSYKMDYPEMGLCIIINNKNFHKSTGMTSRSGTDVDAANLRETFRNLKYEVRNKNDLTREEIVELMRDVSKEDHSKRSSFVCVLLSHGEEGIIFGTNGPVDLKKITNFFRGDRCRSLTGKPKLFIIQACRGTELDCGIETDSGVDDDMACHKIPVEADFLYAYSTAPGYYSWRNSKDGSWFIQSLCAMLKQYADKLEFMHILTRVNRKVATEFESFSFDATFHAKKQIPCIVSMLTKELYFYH
The experiment is classed as functional.

Experiment [7] deals with T3, Sentrin-specific protease 7 (Homo sapiens, UniProt Q9BQF6).
T3 sequence (Q9BQF6 whole entry): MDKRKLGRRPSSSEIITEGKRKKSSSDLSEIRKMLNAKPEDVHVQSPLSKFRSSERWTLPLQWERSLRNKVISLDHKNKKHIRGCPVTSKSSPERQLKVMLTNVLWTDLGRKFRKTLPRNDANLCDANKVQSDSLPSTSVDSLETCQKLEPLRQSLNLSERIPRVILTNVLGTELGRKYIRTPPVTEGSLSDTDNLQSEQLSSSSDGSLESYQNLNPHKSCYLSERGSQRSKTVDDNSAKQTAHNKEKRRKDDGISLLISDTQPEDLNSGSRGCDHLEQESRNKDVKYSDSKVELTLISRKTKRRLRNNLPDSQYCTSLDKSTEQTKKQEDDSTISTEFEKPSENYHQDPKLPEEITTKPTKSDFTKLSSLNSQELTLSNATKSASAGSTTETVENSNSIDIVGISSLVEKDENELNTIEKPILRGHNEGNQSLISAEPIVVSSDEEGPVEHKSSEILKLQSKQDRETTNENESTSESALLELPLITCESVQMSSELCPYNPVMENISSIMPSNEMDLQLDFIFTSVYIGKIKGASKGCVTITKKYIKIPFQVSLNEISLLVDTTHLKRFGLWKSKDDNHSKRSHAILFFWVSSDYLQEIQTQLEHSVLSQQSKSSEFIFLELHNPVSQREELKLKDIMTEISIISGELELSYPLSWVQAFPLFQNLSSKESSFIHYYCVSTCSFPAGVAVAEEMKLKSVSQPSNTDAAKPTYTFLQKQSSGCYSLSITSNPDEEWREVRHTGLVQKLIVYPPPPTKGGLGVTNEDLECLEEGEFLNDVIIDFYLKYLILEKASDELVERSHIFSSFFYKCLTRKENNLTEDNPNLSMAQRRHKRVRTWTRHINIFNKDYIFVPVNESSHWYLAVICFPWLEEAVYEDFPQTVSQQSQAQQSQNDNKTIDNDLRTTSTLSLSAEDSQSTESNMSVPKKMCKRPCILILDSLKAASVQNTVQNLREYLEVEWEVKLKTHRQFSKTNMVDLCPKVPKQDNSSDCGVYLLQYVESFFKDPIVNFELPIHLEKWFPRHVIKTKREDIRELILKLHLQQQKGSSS
The experiment is classed as functional.

Experiment [8] deals with T4, Sentrin-specific protease 6 (Homo sapiens, UniProt Q9GZR1).
T4 sequence (Q9GZR1 whole entry): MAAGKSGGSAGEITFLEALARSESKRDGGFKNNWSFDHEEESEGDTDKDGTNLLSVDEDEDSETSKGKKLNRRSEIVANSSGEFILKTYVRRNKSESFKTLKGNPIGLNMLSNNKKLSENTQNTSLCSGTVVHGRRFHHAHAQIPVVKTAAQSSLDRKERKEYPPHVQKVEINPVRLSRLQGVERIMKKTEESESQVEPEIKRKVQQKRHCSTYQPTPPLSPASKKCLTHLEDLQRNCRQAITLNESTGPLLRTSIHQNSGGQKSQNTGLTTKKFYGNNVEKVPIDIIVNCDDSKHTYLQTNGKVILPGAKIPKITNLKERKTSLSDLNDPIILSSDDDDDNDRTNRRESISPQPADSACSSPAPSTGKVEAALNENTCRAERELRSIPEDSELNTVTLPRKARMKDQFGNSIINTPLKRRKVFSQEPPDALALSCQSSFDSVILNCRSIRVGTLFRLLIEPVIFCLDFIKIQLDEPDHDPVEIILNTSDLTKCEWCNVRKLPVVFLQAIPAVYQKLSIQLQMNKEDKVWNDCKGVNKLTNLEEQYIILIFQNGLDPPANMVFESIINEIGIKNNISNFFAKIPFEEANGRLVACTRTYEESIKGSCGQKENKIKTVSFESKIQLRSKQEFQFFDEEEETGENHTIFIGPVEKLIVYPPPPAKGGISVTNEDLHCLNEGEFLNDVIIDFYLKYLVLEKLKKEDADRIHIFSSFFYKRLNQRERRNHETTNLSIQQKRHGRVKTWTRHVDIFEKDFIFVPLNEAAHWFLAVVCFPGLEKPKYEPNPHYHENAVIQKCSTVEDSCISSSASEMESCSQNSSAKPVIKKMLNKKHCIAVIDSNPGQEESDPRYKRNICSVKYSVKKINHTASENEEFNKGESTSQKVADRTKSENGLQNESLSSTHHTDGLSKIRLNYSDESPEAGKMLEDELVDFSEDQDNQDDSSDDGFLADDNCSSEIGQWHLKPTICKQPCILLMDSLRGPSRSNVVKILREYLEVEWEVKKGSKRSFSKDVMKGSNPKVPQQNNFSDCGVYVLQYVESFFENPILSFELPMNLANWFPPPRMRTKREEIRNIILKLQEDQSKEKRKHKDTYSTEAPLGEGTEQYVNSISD
The experiment is classed as functional.

Experiment [9] relates to A-375. Briefly: MITF: Counter assay: A375 proliferation Measured in Cell-Based System Using Plate Reader - 2084-03_Inhibitor_Dose_DryPowder_Activity. [Related pubchem assays (depositor defined):AID488944]. It is filed as functional. Conditions: Homo sapiens.
Experiment [10] has as its system A-375. Briefly: A375 melanoma cell viability reduction, dose response, counter-screen for MITF modulator project, cherry-pick samples, set 2 (AID 540335). It is filed as functional, cell-based. Particulars: Homo sapiens.
Experiment [11] addresses T5, Heat shock factor protein 1 (Mus musculus, UniProt P38532).
T5 sequence (P38532 whole entry): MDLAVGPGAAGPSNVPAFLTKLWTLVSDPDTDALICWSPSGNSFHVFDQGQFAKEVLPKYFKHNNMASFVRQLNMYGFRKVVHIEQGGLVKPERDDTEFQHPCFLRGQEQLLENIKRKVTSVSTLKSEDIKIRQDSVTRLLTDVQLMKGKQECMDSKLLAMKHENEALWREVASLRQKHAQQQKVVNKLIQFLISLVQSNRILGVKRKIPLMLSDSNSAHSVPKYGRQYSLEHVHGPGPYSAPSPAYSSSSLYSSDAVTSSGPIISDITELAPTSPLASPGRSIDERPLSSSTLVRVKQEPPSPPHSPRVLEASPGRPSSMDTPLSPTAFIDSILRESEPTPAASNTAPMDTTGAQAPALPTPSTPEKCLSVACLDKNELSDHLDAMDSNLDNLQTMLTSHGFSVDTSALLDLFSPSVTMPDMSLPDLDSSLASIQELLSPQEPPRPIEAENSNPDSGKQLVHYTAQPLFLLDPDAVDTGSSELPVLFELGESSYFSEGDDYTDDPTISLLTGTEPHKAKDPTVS
Nature of the experiment: HSF1 potentiators in luciferase reporter cells, confirmation, cell-based, NIH3T3, luminescence, dose retest (AID 435004).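 Further: stress induced by proteasome inhibitor MG132 added 30 min after compound; luciferase reporter driven by HSF1 response element in NIH3T3 cells; actives raise luminescence as potentiators of the MG132 stress response.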 The experiment is classed as functional.

The target in experiment [12] is T6, Short transient receptor potential channel 4 (Mus musculus, UniProt Q9QUQ5).
T6 sequence (Q9QUQ5 whole entry): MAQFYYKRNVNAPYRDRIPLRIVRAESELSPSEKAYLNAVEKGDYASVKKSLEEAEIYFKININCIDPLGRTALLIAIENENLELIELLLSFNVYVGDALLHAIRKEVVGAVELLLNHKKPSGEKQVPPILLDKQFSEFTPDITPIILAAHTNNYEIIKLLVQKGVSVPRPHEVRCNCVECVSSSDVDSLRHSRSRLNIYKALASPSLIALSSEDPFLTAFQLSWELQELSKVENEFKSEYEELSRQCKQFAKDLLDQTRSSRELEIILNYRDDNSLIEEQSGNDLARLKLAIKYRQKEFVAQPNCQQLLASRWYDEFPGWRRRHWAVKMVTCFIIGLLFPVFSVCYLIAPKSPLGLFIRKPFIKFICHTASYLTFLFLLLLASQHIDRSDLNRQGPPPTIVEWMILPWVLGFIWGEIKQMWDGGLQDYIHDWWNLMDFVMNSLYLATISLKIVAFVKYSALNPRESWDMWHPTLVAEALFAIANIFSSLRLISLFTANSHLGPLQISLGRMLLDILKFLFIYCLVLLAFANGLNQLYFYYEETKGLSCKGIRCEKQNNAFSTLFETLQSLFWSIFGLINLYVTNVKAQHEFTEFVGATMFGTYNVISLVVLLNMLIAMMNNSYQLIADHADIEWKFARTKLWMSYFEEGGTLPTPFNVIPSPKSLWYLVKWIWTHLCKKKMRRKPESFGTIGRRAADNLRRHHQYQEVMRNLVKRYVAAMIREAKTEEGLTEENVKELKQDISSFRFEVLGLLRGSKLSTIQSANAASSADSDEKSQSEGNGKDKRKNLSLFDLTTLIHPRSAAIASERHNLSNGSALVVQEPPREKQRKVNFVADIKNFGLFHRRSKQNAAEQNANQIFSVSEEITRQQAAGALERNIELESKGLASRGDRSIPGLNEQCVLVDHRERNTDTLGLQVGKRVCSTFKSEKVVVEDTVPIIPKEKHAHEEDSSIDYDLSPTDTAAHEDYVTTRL
Nature of the experiment: SAR Analysis for the identification of selective inhibits of the transient receptor potential cation channel C4 (TRPC4): Automated Electrophysiology. [Related pubchem assays (depositor defined):AID2256]. The experiment is classed as functional.

The target in experiment [13] is T6, Short transient receptor potential channel 4. Nature of the experiment: mouse TRPC4 channel inhibitors, dose response, cell-based, HEK293 TRPC4/mu-opioid, Fluo-4 calcium (AID 434942).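 Further: potency of inhibitors blocking the TRPC4 calcium response.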 The experiment is classed as functional.
A further experiment has as its system NIH3T3. Briefly: cytotoxicity in NIH-3T3 fibroblasts, dose response, cytotoxicity control for antifungal drug resistance project, cell-based, Alamar Blue, fluconazole, dry powder (AID 488809). It is filed as functional. Conditions: Mus musculus. (In general: Resazurin is reduced to fluorescent resorufin, in cell work by metabolically active cells.)
For experiment [14], the system named is Escherichia coli. Briefly: microbe, parasite or virus in culture.
A further experiment addresses Large T antigen (Simian virus 40, UniProt P03070). The experiment is classed as functional, Betapolyomavirus macacae.
Experiment [15] has as its target Heat shock protein HSP 90-alpha (Homo sapiens, UniProt P07900). The experiment is classed as functional, organism-based.
The test system of experiment [16] is Escherichia coli. Briefly: microbe, parasite or virus in culture. The source holds these as a separate data set.

The structures appear in SMILES notation. Calls of active or inactive are those of the source.

Sequence of FAD-linked sulfhydryl oxidase ALR (P55789 whole entry): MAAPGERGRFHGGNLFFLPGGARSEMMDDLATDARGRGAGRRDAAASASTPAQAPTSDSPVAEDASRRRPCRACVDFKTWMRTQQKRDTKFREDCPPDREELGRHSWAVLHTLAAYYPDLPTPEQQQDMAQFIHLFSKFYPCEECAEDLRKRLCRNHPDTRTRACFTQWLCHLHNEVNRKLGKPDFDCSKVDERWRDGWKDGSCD
Sequence of Dual specificity protein kinase CLK1 (P49759 whole entry): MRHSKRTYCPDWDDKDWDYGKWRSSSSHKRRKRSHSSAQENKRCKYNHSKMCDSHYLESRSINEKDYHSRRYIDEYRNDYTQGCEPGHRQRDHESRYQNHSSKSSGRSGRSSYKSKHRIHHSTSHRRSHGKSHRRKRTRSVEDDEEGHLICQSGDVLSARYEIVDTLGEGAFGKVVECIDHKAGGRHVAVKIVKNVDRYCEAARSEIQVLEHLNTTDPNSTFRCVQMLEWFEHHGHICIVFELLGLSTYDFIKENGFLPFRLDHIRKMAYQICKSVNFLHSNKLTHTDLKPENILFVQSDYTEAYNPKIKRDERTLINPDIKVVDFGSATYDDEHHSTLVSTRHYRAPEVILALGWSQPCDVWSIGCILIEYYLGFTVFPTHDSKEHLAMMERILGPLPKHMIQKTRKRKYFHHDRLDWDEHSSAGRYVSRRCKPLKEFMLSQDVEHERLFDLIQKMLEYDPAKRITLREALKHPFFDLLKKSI
Sequence of Large T antigen (P03070 whole entry): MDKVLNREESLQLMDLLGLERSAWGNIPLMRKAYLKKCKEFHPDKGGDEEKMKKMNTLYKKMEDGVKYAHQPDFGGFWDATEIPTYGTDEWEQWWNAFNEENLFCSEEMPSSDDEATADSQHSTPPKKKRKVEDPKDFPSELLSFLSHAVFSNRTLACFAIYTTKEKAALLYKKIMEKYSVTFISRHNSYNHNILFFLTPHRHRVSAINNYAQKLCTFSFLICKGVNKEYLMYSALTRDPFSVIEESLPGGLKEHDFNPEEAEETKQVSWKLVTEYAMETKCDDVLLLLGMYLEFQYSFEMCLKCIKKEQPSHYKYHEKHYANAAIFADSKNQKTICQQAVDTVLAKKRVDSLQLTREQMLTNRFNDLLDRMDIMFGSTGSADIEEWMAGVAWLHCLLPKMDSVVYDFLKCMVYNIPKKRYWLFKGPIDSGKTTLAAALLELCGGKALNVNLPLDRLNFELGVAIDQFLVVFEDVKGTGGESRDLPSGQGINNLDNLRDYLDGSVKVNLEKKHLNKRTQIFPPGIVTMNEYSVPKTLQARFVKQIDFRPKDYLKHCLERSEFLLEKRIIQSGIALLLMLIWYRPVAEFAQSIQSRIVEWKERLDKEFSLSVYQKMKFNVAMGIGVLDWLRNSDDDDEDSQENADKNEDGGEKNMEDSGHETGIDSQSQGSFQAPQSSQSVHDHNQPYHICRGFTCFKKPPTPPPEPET

In the case of `CC(=O)Nc1ccc(SCc2ncc(-c3ccccc3)o2)cc1`, the half-maximal activity concentration (AC50) (usually the concentration giving half of the maximal activity seen) in experiment [1] was 0.429 µM (active); in experiment [2] it was 4.26 µM (active); in experiment [3], 0.44 µM (active). Besides, the EC50 – broadly, the concentration at which the effect is half-maximal – in experiment [4] was 0.237 µM (active); in [5], 34.3 µM (active); in the experiment with H4 it was 11.2 µM (active).
With `CCOc1ccc2nc(NC(=O)Cc3cccs3)sc2c1`, the half-maximal inhibitory concentration (IC50) (usually the concentration at which inhibition is half-maximal) is 16.2 µM (active) in [6], 22.9 µM (active) at Caspase-3, 7.38 µM (active) in [7] and 33.2 µM (active) in [8]. Besides, the AC50 in the experiment with A-375 [9] and in the experiment with A-375 [10] was > 35 µM (active) in each case.
For `COc1ccc2c(C)cc(N3CCCCCC3)nc2c1`, the EC50 in experiment [11] was > 260 µM (inactive); in experiment [13] it was 0.531 µM (active). In addition, the IC50 in experiment [12] was 2.38 µM (active).
For `O=C(Cn1nc(-c2ccccc2)c2ccccc21)NCc1ccc(Cl)cc1`, in the experiment with NIH3T3, the concentration at half-maximal activity (AC50) was 131 µM (active).
With `[O-][n+]1ccccc1S` [PYRITHIONE], the AC50 with Escherichia coli [14] is 9.06 µM (active); in [3], 0.432 µM (active); in experiment [15], 1.01 µM (active); with Escherichia coli [16], 9.47 µM (active). Also, the half-inhibitory concentration (IC50) at Large T antigen is 30.3 µM (active).
